Here are results for 1 compound from article PMC3605511, “Tumor P-Glycoprotein Correlates with Efficacy of PF-3758309 in in vitro and in vivo Models of Colorectal Cancer” (Frontiers in Pharmacology, 2013).

Structures are written as SMILES.

Series [1] concerns DLD1 Scr. The experiment in a line: Proliferation, control shRNA, DLD1 Scr. It is filed as cell-based. The settings on record: Homo sapiens, DLD-1; DLD1 Scr:50, control shRNA. As to the method: (§1) Cytotoxic/proliferation effects were determined using the sulforhodamine B (SRB) assay (Skehan et al., [1990]) or by resazurin. Briefly, cells in logarithmic growth phase were transferred to 96 well flat bottom plates with lids. One-hundred microliter cell suspensions containing 1500–5000 viable cells were plated into each well and incubated overnight prior to exposure with increasing concentrations of PF-309 for 3–5 days, dependent upon cell type. Media was removed and cells were fixed with cold 10% trichloroacetic acid for 30 min at 4°C. Cells were then washed with water and stained with 0.4% SRB (Fisher Sci., Pittsburgh, PA, USA) for 30 min at room temperature, washed again with 1% acetic acid, followed by stain solubilization with 10 mM tris at room temperature. The plate was then read on a plate reader (Biotek Synergy 2, Winooski, VT, USA) set at an absorbance wavelength of 565 nm. Cell proliferation curves were derived from the raw absorbance (OD) data.
(§2) The pGIPZ Pgp-specific shRNA expression cassettes, along with control shRNA plasmids including the original pGIPZ vector were purchased from Open Biosystems (Birmingham, AL, USA). […] Successful knockdown of specific genes and gene products was confirmed by semi-quantitative RT-PCR and immunoblotting with specific antibodies. […]

Series [2] relates to CUCRC006 CRC PDTX model. The experiment in a line: Patient derived tumor xenograft efficacy, CUCRC006. It is filed as in vivo, mice. As to conditions: 25 mg/kg orally twice daily, 22–56 days, end of study tumor volumes. As to the method:
For patient tumor xenografts, surgical specimens of patients undergoing either removal of a primary or metastatic tumor at the University of Colorado Hospital are implanted subcutaneously into five mice for each patient with a 10-G trochar. After a subsequent growth and passage in mice, tumors are excised, and expanded into cohorts for treatment (n = 6–15 per group). Mice were treated with PF-309 or vehicle (0.5% methylcellulose) for 22–56 days (until control tumor volume reach ∼1500 mm^3) twice daily (BID) by oral gavage (PO). Monitoring of mice and measurements of tumors were conducted as described above. % Growth Inhibition= (average control volume−average treated volume)/average control volume×100% In addition to the cell line xenografts, we also treated 12 different patient derived tumor xenograft (PDTX) CRC models with PF-309 (Figure 6). We were unable to assess how ABCB1 gene expression correlated with efficacy in these models. The PDTX models are propagated in vivo, are not immortalized, and are not grown in in vitro culture. […] Tumor and plasma sample pairs were collected from animals at the end of study for eight tumor models (three cell line xenografts and five PDTX models) and concentrations of PF-309 were measured. […]

The nature of series [3]: End of study tumor and plasma concentrations (LC/MS/MS). It counts as in vivo. The settings on record: mice, trough (6–8 h).
Series [4] has as its target T1, P-gp (Homo sapiens, UniProt P08183).
T1 construct: expressed in transfected cells; host or cells: MDR1-MDCK cells (canine kidney MDCK)
Kind of series: MDR1-MDCK transwell assay (P-gp efflux). It is filed as in vitro ADME. The settings on record: dog, ratio of B → A flux to A → B flux, >2 = substrate. As to the method: Permeability and transporter substrate assays were performed as previously published (Feng et al., [2008]; Callegari et al., [2011]; Di et al., [2011]). Permeability assays were conducted in MDCKII-LE cells, which were generated by isolation of a subpopulation of cells with low expression of endogenous P-gp (Feng et al., [2008]; Callegari et al., [2011]; Di et al., [2011]). The use of MDCKII-LE cells are used to measure the passive permeability of compounds in place of MDCK wild-type or Caco-2 cells since both MDCK wild-type and Caco-2 cells are known to have some level of endogenous transporter expression which can affect the permeability measurement. P-gp efflux was determined in MDR1-MDCK cells and BCRP efflux was measured in BCRP-MDCKII-LE cells.
MDR1-MDCK and BCRP-MDCKII-LE transwell assays measure the effect of P-gp and BCRP, respectively, on transcellular flux. The efflux ratio, ratio of the B → A flux to the A → B flux, of PF-309 was measured to be 34.9 ± 7.9 in the MDR1-MDCK assay, indicating it is a strong substrate for P-gp. PF-309 was also determined to be substrate for BCRP as the efflux ratio was measured to be 7.6 ± 1.1. As a reference, compounds with efflux ratios >2 are considered to be substrates (Callegari et al., [2011]).

In series [5] the test system is HT29. Kind of series: Cell proliferation assay, HT29. It counts as cell-based. The settings on record: Homo sapiens, HT-29; HT29, 72 h, SRB assay. As to the method:
as §1
(§3) Since PF-309 appeared to be a strong P-gp and BCRP substrates, we sought to evaluate if the transporters influenced sensitivity in vitro. We evaluated the sensitivity of CRC cell lines to PF-309 treatment in a panel of 27 lines. Cells were exposed to PF-309 at a range of concentrations for 72 h and cell content measured by SRB assay (see Pitts et al., [2013]). […]

The subject of series [6] is DLD1 PgP_KD1. Kind of series: Proliferation after shRNA knockdown of P-gp, DLD1 PgP_KD1. It counts as cell-based. The settings on record: Homo sapiens, DLD-1; DLD1 PgP_KD1:50, P-gp shRNA knockdown. As to the method: as §1, §2
Series [7] has as its system GEO. Kind of series: Cell proliferation assay, GEO. The settings on record: Homo sapiens, 72 h, SRB assay. It is filed as cell-based. As to the method: as §1, §3
Series [8] has as its system SW837. Kind of series: Cell proliferation assay, SW837. It is filed as cell-based. As to conditions: Homo sapiens; SW837, 72 h, SRB assay. As to the method:
as §1, §3

T1 sequence (P08183 whole entry): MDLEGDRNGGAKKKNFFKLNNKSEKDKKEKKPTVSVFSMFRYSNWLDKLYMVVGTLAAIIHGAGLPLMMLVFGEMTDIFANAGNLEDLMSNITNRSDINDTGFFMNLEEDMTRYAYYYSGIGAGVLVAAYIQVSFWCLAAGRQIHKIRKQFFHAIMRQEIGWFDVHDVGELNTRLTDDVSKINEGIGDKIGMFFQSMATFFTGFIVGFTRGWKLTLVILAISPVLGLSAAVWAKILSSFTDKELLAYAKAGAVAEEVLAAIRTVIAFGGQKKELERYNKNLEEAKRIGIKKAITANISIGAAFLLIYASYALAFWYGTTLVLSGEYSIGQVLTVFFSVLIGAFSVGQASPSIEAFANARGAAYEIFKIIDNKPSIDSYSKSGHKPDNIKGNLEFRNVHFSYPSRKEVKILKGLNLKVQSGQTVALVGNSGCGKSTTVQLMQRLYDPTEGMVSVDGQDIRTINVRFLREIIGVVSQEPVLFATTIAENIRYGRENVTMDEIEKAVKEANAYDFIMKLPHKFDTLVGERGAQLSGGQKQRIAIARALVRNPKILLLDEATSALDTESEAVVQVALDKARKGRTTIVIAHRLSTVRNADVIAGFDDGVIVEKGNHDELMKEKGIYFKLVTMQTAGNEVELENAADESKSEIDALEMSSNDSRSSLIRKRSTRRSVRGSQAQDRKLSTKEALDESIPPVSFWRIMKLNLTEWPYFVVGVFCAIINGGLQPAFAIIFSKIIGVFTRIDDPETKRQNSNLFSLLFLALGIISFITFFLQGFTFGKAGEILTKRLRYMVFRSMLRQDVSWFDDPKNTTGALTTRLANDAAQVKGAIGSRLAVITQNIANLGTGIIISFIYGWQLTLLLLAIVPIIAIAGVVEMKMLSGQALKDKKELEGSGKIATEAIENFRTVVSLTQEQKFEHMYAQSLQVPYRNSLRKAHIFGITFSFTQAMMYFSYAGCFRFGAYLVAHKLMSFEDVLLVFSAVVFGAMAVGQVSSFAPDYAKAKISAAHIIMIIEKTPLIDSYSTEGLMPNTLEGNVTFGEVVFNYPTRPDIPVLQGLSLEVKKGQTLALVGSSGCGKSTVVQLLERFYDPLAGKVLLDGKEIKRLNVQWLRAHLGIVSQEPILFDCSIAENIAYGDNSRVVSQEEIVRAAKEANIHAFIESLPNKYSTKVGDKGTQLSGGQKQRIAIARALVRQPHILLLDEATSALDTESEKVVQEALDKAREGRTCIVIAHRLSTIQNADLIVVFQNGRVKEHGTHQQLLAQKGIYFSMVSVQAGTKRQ

`Cc1nc(Nc2n[nH]c3c2CN(C(=O)N[C@H](CN(C)C)c2ccccc2)C3(C)C)c2sccc2n1` [PF-309]: the IC50 is 103 nM in series [1]; more than 1000 nM in series [5]; 26 nM in series [6]; more than 1000 nM in series [7]; more than 1000 nM in series [8]. Besides, the “% Growth inhibition” value in series [2] was determined as 32%. Besides, in series [3], the “total plasma concentrations at the trough” value lay within 1 to 10 nM. Also, the efflux ratio in series [4] was 34.9 ± 7.9.
